Reference: PubChem BioAssay AID330 (DTP/NCI, 2004)
Where “and” joins values, the source holds several entries; their conditions need not be identical. Equal values may be shown once. Inconclusive results and toxic doses are left out. The calls were made as follows: active = survival T/C of 150% or more; inactive = T/C below 125% in these data.

Test system: P388 leukemia ip, CD2F1 mice, survival T/C
Assay: NCI In Vivo Anticancer Drug Screen. Data for tumor model P388 Leukemia (intraperitoneal) in CD2F1 (CDF1) mice
Settings: endpoint: median survival time, higher = longer survival
Outline: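 Mice carrying the transplanted tumor received test compound or vehicle. Survival was recorded in each group, and the value is the treated-group measurement divided by that of the vehicle-treated control group.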

[1] = dose: 50.0 mg/kg/injection, schedule: Q01DX005 (ip), vehicle: saline with Tween-80
[2] = dose: 100.0 mg/kg/injection, schedule: Q01DX005 (ip), vehicle: saline with Tween-80
[3] = dose: 200.0 mg/kg/injection, schedule: Q01DX005 (ip), vehicle: saline with Tween-80
[4] = dose: 100.0 mg/kg/injection, schedule: Q04DX002 (ip), vehicle: saline with Tween-80
[5] = dose: 100.0 mg/kg/injection, schedule: Q01DX009 (ip), vehicle: Klucel (hydroxypropylcellulose) (HPC)
[6] = dose: 200.0 mg/kg/injection, schedule: Q01DX009 (ip), vehicle: Klucel (hydroxypropylcellulose) (HPC)
[7] = dose: 50.0 mg/kg/injection, schedule: Q01DX009 (ip), vehicle: saline
[8] = dose: 100.0 mg/kg/injection, schedule: Q01DX009 (ip), vehicle: saline
[9] = dose: 50.0 mg/kg/injection, schedule: Q01DX009 (ip), vehicle: saline with Tween-80
[10] = dose: 100.0 mg/kg/injection, schedule: Q01DX009 (ip), vehicle: saline with Tween-80
[11] = dose: 200.0 mg/kg/injection, schedule: Q01DX009 (ip), vehicle: saline with Tween-80
[12] = dose: 60.0 mg/kg/injection, schedule: Q01DX005 (ip), vehicle: saline with Tween-80
[13] = dose: 120.0 mg/kg/injection, schedule: Q01DX005 (ip), vehicle: saline with Tween-80
[14] = dose: 240.0 mg/kg/injection, schedule: Q01DX005 (ip), vehicle: saline with Tween-80
[15] = dose: 400.0 mg/kg/injection, schedule: Q04DX003 (ip), vehicle: saline
[16] = dose: 200.0 mg/kg/injection, schedule: Q01DX009 (ip), vehicle: saline
[17] = dose: 400.0 mg/kg/injection, schedule: Q01DX009 (ip), vehicle: saline

Measured: T/C

CC(C)(O)C1CCC2(C)CC(=O)NCCN12 (configuration not stated)
inactive: dose: 25.0 mg/kg/injection, schedule: Q01DX001 (ip), vehicle: Klucel (hydroxypropylcellulose) (HPC) 112 % of control | dose: 50.0 mg/kg/injection, schedule: Q01DX001 (ip), vehicle: Klucel (hydroxypropylcellulose) (HPC) 106 % of control

Cc1c(-c2ccccc2)oc(=O)c(Cl)c1N(c1ccccc1)c1ccccc1
inactive: [1] 93 % of control | [2] 98 % of control | [3] 90 % of control

CSc1nc(N)n2ncc(Br)c2n1
inactive: [4] 92 % of control

CN1C(=O)CCC1(O)C1SCCCS1 (configuration not stated)
inactive: dose: 50.0 mg/kg/injection, schedule: Q01DX005 (ip), vehicle: saline 102 % of control | dose: 100.0 mg/kg/injection, schedule: Q01DX005 (ip), vehicle: saline 100 % of control | dose: 200.0 mg/kg/injection, schedule: Q01DX005 (ip), vehicle: saline 102 % of control

O=Cc1cccc2[nH]ccc12
inactive: dose: 50.0 mg/kg/injection, schedule: Q01DX005 (ip), vehicle: Klucel (hydroxypropylcellulose) (HPC) 102 % of control | dose: 100.0 mg/kg/injection, schedule: Q01DX005 (ip), vehicle: Klucel (hydroxypropylcellulose) (HPC) 99 % of control | dose: 200.0 mg/kg/injection, schedule: Q01DX005 (ip), vehicle: Klucel (hydroxypropylcellulose) (HPC) 96 % of control

C[CH2][Sn]([CH2]C)[O][Sn]([Cl])([CH2]C)[CH2]C
inactive: dose: 3.12 mg/kg/injection, schedule: Q01DX005 (ip), vehicle: Klucel (hydroxypropylcellulose) (HPC) 116 % of control | dose: 6.25 mg/kg/injection, schedule: Q01DX005 (ip), vehicle: Klucel (hydroxypropylcellulose) (HPC) 118 % of control and 121 % of control | dose: 12.5 mg/kg/injection, schedule: Q01DX005 (ip), vehicle: Klucel (hydroxypropylcellulose) (HPC) 104 % of control and 121 % of control | dose: 25.0 mg/kg/injection, schedule: Q01DX005 (ip), vehicle: Klucel (hydroxypropylcellulose) (HPC) 120 % of control

O=c1oc(-c2cccc(I)c2)ns1
inactive: [5] 111 % of control | [6] 114 % of control

CCCCCCOC(=O)C1=C(NC)CCC1
inactive: [7] 106 % of control | [8] 119 % of control

CC1(C)CC(=O)C2(OC3=C([Se]2)C(=O)CC(C)(C)C3)C(=O)C1
inactive: [9] 110 % of control | [10] 107 % of control | [11] 107 % of control

CCN(CC)CCCNc1cc(C)c2cc(OC)ccc2n1
inactive: dose: 25.0 mg/kg/injection, schedule: Q01DX001 (ip), vehicle: saline with Tween-80 99 % of control | dose: 50.0 mg/kg/injection, schedule: Q01DX001 (ip), vehicle: saline with Tween-80 97 % of control | dose: 100.0 mg/kg/injection, schedule: Q01DX001 (ip), vehicle: saline with Tween-80 90 % of control

CCOC(=O)c1ccc(NC(=O)Nc2ccc(Nc3ccccc3)cc2)cc1
inactive: dose: 60.0 mg/kg/injection, schedule: Q01DX005 (ip), vehicle: Klucel (hydroxypropylcellulose) (HPC) 95 % of control | dose: 120.0 mg/kg/injection, schedule: Q01DX005 (ip), vehicle: Klucel (hydroxypropylcellulose) (HPC) 92 % of control | dose: 240.0 mg/kg/injection, schedule: Q01DX005 (ip), vehicle: Klucel (hydroxypropylcellulose) (HPC) 88 % of control

CC(C)C(NC(=O)C(CCCCN)N(C(=O)OCc1ccccc1)C(=O)OCc1ccccc1)C(=O)O (configuration not stated)
inactive: [1] 100 % of control | [2] 93 % of control | [3] 92 % of control

CC1(C)C(=NOCc2ccccc2)C(C)(C)C1=NOCc1ccccc1
inactive: [1] 91 % of control | [2] 87 % of control | [3] 86 % of control

FC(F)(F)C[P+](c1ccccc1)(c1ccccc1)c1ccccc1
inactive: dose: 12.5 mg/kg/injection, schedule: Q01DX001 (ip), vehicle: saline 100 % of control and 109 % of control | dose: 25.0 mg/kg/injection, schedule: Q01DX001 (ip), vehicle: saline 108 % of control and 117 % of control | dose: 50.0 mg/kg/injection, schedule: Q01DX001 (ip), vehicle: saline 104 % of control

COc1cc(OC)c(C2CC(C)(N3CCCC3)Oc3cc4c(cc32)OCO4)c(OC)c1 (configuration not stated)
inactive: [12] 94 % of control | [13] 91 % of control | [14] 87 % of control

O=C(O)c1ccc(NC(C[N+](=O)[O-])C(F)(F)C(F)(F)C(F)(F)F)cc1 (configuration not stated)
inactive: dose: 100.0 mg/kg/injection, schedule: Q01DX001 (ip), vehicle: saline sonified 100 % of control | dose: 200.0 mg/kg/injection, schedule: Q01DX001 (ip), vehicle: saline sonified 100 % of control | dose: 400.0 mg/kg/injection, schedule: Q01DX001 (ip), vehicle: saline sonified 100 % of control

CCOC(=O)c1ccc(NCc2cccc([N+](=O)[O-])c2)cc1
inactive: dose: 100.0 mg/kg/injection, schedule: Q04DX003 (ip), vehicle: saline 109 % of control | dose: 200.0 mg/kg/injection, schedule: Q04DX003 (ip), vehicle: saline 101 % of control | [15] 101 % of control

S=P(Nc1ccccc1)(Nc1ccccc1)c1ccccc1
inactive: [5] 103 % of control | [6] 106 % of control | dose: 400.0 mg/kg/injection, schedule: Q01DX009 (ip), vehicle: Klucel (hydroxypropylcellulose) (HPC) 95 % of control

NNC(=O)CC(N)C(=O)O (configuration not stated)
inactive: dose: 25.0 mg/kg/injection, schedule: Q01DX009 (ip), vehicle: saline 100 % of control | [9] 110 % of control | [7] 105 % of control and 122 % of control | [10] 108 % of control | [8] 109 % of control and 122 % of control | [11] 117 % of control | [16] 116 % of control | [17] 107 % of control

COC(=O)C1(c2ccccc2)N=C(c2ccc(C)cc2)ON1c1ccccc1 (configuration not stated)
inactive: [12] 107 % of control | [13] 95 % of control | [14] 92 % of control

O=C(O)c1ccccc1C(=O)c1ccc(CBr)cc1
inactive: dose: 1.56 mg/kg/injection, schedule: Q01DX009 (ip), vehicle: saline with Tween-80 109 % of control | dose: 3.13 mg/kg/injection, schedule: Q01DX009 (ip), vehicle: saline with Tween-80 109 % of control | dose: 6.25 mg/kg/injection, schedule: Q01DX009 (ip), vehicle: saline with Tween-80 109 % of control and 113 % of control | dose: 6.25 mg/kg/injection, schedule: Q04DX003 (ip), vehicle: saline with Tween-80 91 % of control | dose: 12.5 mg/kg/injection, schedule: Q04DX003 (ip), vehicle: saline with Tween-80 95 % of control | dose: 25.0 mg/kg/injection, schedule: Q04DX003 (ip), vehicle: saline with Tween-80 108 % of control

O=C(/C=C/c1ccc(Cl)c(Cl)c1)c1ccccc1
inactive: [11] 100 % of control

Nc1c(Cl)cc(Cl)c(-c2c(Cl)cc(Cl)c([N+](=O)[O-])c2Cl)c1Cl
inactive: dose: 50.0 mg/kg/injection, schedule: Q01DX009 (ip), vehicle: Klucel (hydroxypropylcellulose) (HPC) 103 % of control | [5] 93 % of control | [6] 100 % of control

BrC1=CC(Br)=C2N=C(N3CCCC3)N=C3N=C(N4CCCC4)N=C1N32
inactive: dose: 3.75 mg/kg/injection, schedule: Q01DX005 (ip), vehicle: Klucel + Tween-80 97 % of control | dose: 7.5 mg/kg/injection, schedule: Q01DX005 (ip), vehicle: Klucel + Tween-80 97 % of control | dose: 15.0 mg/kg/injection, schedule: Q01DX005 (ip), vehicle: Klucel + Tween-80 89 % of control and 90 % of control | dose: 60.0 mg/kg/injection, schedule: Q01DX005 (ip), vehicle: Klucel + Tween-80 86 % of control

COC(=O)c1ccc(SCCCN2CCOCC2)cc1
inactive: [8] 91 % of control | dose: 176.0 mg/kg/injection, schedule: Q04DX003 (ip), vehicle: saline 90 % of control | [16] 91 % of control | dose: 264.0 mg/kg/injection, schedule: Q04DX003 (ip), vehicle: saline 95 % of control | [17] 100 % of control | [15] 104 % of control

Nc1ccnc(N)c1N=O
inactive: dose: 100.0 mg/kg/injection, schedule: Q04DX003 (ip), vehicle: saline with Tween-80 103 % of control | dose: 200.0 mg/kg/injection, schedule: Q04DX003 (ip), vehicle: saline with Tween-80 99 % of control | dose: 400.0 mg/kg/injection, schedule: Q04DX003 (ip), vehicle: saline with Tween-80 97 % of control

c1cnc(Nc2c3ccccc3nc3ccccc23)nc1
inactive: [4] 103 % of control | dose: 200.0 mg/kg/injection, schedule: Q04DX002 (ip), vehicle: saline with Tween-80 103 % of control | dose: 400.0 mg/kg/injection, schedule: Q04DX002 (ip), vehicle: saline with Tween-80 94 % of control
